# In US11225480B2, “Malic enzyme inhibitors” (SUN PHARMA ADVANCED RESEARCH COMPANY LTD, priority 2019, dated 2022):
# What was measured:
# Format in all cases: biochemical
# human ME2 enzyme = human ME2 enzyme (Homo sapiens, UniProt P23368); assay: ME2 inhibition assay (diaphorase/resazurin coupled fluorescence); details: 10 μM compound concentration; read-out: Malic Enzyme 2 % inhibition (10 μM)
# Protocol: (§1) ME2 catalyzes the oxidative decarboxylation of malate to pyruvate with conversion of the co-factor β-NAD+ to β-NADH. In the fluorescence assay, a coupled reaction is set up where in an enzyme, Diaphorase, utilizes NADH generated by ME2, to convert the dye resazurin to a fluorescent molecule resorufin. Resorufin has a characteristic fluorescence with excitation/emission at 540/600 nm (SLAS Discov., 2017 April 1:2472555217706649).
# The enzyme activity inhibition assay is set up in a 200 μL final reaction volume in a 96-well plate. As per the experimental design, 2 μL of the compounds at 100× the desired concentration (10 μM) in DMSO were added to the respective wells with 178 μL of assay buffer (50 mM Tris-HCl pH 7.5, 10 mM MnCl2, 7 mM L-malate, 50 μM Resazurin and 0.025 mg/ml Diapharose). The 96-well plate was incubated on a plate shaker at room temperature for 15 minutes protected from light. The well contents were gently mixed by adding 10 μL of 60 nM human ME2 enzyme to the wells and the plate was incubated on a shaker at room temperature for 5 minutes protected from light. Suitable ‘enzyme only’ and ‘no enzyme’ controls were included in the experiment. The enzymatic reaction was started by adding 10 μL of 2 mM β-NAD+. The reaction was gently mixed and the plate was initially left on a shaker at room temperature for −7 minutes protected from light. Later, the plate was incubated without shaking at room temperature for 2 hours. At the end of 2 hours, the fluorescence of the wells was measured at excitation 540 nm and emission 600 nm. The % enzyme activity of the compounds is obtained by normalizing the data with enzyme only (100%) and no enzyme controls (0%) using GraphPad Prism software 7.04.
# human ME1 enzyme = biological target: T1, human ME1 enzyme (Homo sapiens, UniProt P48163); assay: ME1 inhibition assay (diaphorase/resazurin coupled fluorescence); details: 10 μM compound concentration; read-out: Malic Enzyme 1 % inhibition (10 μM)
# T1 sequence (P48163 1-572): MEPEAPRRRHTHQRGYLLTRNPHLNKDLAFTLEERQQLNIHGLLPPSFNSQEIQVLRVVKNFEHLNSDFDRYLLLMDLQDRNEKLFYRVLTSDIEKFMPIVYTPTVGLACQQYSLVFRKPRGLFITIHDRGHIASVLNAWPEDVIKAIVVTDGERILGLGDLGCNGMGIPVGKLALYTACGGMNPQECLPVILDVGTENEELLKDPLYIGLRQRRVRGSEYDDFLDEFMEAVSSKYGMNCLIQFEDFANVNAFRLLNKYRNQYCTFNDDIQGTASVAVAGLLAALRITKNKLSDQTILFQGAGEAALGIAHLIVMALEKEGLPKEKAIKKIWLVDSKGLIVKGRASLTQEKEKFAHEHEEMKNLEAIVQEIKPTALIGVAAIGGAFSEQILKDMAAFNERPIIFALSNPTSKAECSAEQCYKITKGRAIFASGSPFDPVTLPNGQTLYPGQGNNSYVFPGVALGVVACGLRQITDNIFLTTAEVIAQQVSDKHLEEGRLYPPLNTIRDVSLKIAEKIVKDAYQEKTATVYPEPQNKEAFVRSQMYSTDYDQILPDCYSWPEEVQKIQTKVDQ
# Protocol: as §1, with “ME1” for “ME2”, “β-NADP+” for “β-NAD+”, “β-NADPH.” for “β-NADH.”, “NADPH” for “NADH”, “ME1,” for “ME2,”
# The enzyme activity inhibition assay is set up in a 200 μL final reaction volume in a 96-well plate. As per the experimental design, 2 μL of the compounds at 100× the desired concentration (10 μM) in DMSO were added to the respective wells with 178 μL of assay buffer (50 mM Tris-HCl pH 7.5, 10 mM MnCl2, 2 mM L-malate, 10 μM Resazurin and 0.01 mg/ml Diapharose). The 96-well plate was incubated on a plate shaker at room temperature for 15 minutes protected from light. The well contents were gently mixed by adding 10 μL of 20 nM human ME1 enzyme to the wells and the plate was incubated on a shaker at room temperature for 5 minutes protected from light. Suitable ‘enzyme only’ and ‘no enzyme’ controls were included in the experiment. The enzymatic reaction was started by adding 10 μL of 0.3 mM D-NADP+. The reaction was gently mixed and the plate was initially left on a shaker at room temperature for −7 minutes protected from light. Later, the plate was incubated without shaking at room temperature for 2 hours. At the end of 2 hours, the fluorescence of the wells was measured at excitation 540 nm and emission 600 nm. The % enzyme activity of the compounds is obtained by normalizing the data with enzyme only (100%) and no enzyme controls (0%) using GraphPad Prism software 7.04.
# human ME3 enzyme = biological target: T2, human ME3 enzyme (Homo sapiens, UniProt Q16798); assay: ME3 inhibition assay (diaphorase/resazurin coupled fluorescence); details: 10 μM compound concentration; read-out: Malic Enzyme 3 % inhibition (10 μM)
# T2 sequence (Q16798 1-604): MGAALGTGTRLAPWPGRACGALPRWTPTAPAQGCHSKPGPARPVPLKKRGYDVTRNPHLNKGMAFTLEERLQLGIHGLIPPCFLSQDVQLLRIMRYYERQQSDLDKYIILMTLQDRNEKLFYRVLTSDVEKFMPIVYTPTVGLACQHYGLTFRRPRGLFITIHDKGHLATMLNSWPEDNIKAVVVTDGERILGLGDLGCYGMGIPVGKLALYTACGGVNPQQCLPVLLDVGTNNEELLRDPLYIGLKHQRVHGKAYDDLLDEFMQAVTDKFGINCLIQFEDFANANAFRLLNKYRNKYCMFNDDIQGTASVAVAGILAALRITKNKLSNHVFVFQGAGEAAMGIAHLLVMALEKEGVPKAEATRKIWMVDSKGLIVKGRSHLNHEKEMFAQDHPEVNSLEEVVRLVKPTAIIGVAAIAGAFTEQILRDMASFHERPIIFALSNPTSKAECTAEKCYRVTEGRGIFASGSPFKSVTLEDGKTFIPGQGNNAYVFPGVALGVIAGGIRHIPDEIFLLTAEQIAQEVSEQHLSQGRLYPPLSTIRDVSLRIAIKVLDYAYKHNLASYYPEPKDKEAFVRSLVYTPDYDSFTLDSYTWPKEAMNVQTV
# Method in brief: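 Coupled read-out: NADPH made by human ME3 (20 nM stock) drives diaphorase conversion of resazurin (50 μM) to resorufin; buffer 50 mM Tris-HCl pH 7.5, 10 mM MnCl2, 3 mM L-malate.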
# Chain of human ME2 enzyme (P23368 19-584): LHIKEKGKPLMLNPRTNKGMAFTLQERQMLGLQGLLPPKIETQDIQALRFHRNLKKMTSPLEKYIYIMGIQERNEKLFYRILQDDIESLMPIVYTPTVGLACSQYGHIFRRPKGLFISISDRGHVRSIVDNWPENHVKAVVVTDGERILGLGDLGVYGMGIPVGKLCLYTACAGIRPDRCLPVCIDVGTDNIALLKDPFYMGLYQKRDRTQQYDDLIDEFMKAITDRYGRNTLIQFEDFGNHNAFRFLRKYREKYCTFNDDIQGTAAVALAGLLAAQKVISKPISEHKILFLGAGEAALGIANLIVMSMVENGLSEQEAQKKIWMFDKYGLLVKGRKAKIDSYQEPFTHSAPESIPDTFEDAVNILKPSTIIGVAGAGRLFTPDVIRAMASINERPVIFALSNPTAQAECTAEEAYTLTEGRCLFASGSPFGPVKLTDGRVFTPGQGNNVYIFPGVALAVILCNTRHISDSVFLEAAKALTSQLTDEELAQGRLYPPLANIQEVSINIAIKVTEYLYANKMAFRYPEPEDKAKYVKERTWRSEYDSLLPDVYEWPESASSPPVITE
Compound,inhibition at 10 µM (human ME2 enzyme),inhibition at 10 µM (human ME1 enzyme),inhibition at 10 µM (human ME3 enzyme)
"Cc1cc(F)ccc1CCC(=O)N1CCN(c2ccc(O)cn2)CC1 [I.145, 3-(4-Fluoro-2-methyl-phenyl)-1-[4-(5-hydroxy-pyridin-2-yl)-piperazin-1-yl]-propan-1-one]",> 90%,> 90%,> 90%
"O=C(CCc1ccc(F)c(F)c1)N1CCN(c2ccc(O)cn2)CC1 [I.153, 3-(3,4-Difluoro-phenyl)-1-[4-(5-hydroxy-pyridin-2-yl)-piperazin-1-yl]-propan-1-one]",> 90%,> 90%,> 90%
"O=C(Cc1ccccc1)N1CCN(c2ccc(O)cc2F)CC1 [I.11, 1-[4-(2-Fluoro-4-hydroxy-phenyl)-piperazin-1-yl]-2-phenyl-ethanone]",70 to 89%,> 90%,> 90%
"O=C(CC(c1ccccc1)c1ccccc1)N1CCN(c2ccc(O)cn2)CC1 [I.75, 1-[4-(5-Hydroxy-2-pyridyl)-piperazin-1-yl]-3,3-diphenyl-propan-1-one]",70 to 89%,> 90%,> 90%
O=C(c1cc2cc(F)ccc2[nH]1)N1CCN(c2ccc(O)cn2)CC1 [I.88],70 to 89%,> 90%,> 90%
"O=C(C(c1ccccc1)c1ccccc1)N1CCN(c2ccc(O)cn2)CC1 [I.48, 1-[4-(5-Hydroxy-2-pyridyl)-piperazin-1-yl]-2,2-diphenyl-ethanone]",70 to 89%,70 to 89%,> 90%
"O=C(C1CC(O)(c2ccccc2)C1)N1CCN(c2ccc(O)cn2)CC1 (stereo not drawn) [I.124, (3-Hydroxy-3-phenylcyclo-butyl)-[4-(5-hydroxy-pyridin-2-yl)-piperazin-1-yl]-methanone]",> 90%,> 90%,> 90%
"O=C(C=C(c1ccccc1)c1ccccc1)N1CCN(c2ccc(O)cc2)CC1 [I.40, 1-[4-(4-hydroxyphenyl)piperazin-1-yl]-3,3-diphenylprop-2-en-1-one]",> 90%,> 90%,> 90%
"CC(C)(CC(=O)N1CCN(c2ccc(O)cn2)CC1)c1ccc(F)cc1 [I.161, 3-(4-Fluoro-phenyl)-1-[4-(5-hydroxy-pyridin-2-yl)-piperazin-1-yl]-3-methyl-butan-1-one]",> 90%,> 90%,> 90%
"O=C(O)c1cccc(-c2cc(C(=O)N3CCN(c4ccc(O)cc4)CC3)ccn2)c1 [I.39, 3-[4-[4-(4-Hydroxy-phenyl)-piperazine-1-carbonyl]-2-pyridyl]-benzoic acid]",> 90%,> 90%,> 90%
"O=C(CCc1c(F)cccc1F)N1CCN(c2ccc(O)cn2)CC1 [I.157, 3-(2,6-Difluoro-phenyl)-1-[4-(5-hydroxy-pyridin-2-yl)-piperazin-1-yl]-propan-1-one]",> 90%,> 90%,> 90%
"O=C(c1c2ccccc2cc2ccccc12)N1CCN(c2ccc(O)cc2)CC1 [I.21, Anthracen-9-yl-[4-(4-hydroxy-phenyl)-piperazin-1-yl]-methanone]",> 90%,> 90%,> 90%
"O=C(Cc1ccccc1Oc1ccccc1)N1CCN(c2ccc(O)cc2)CC1 [I.49, 1-[4-(4-hydroxyphenyl)piperazin-1-yl]-2-(2-phenoxyphenyl)ethanone]",> 90%,> 90%,> 90%
"O=C(c1ccc(-c2ccccc2)s1)N1CCN(c2ccc(O)cn2)CC1 [I.123, [4-(5-Hydroxy-pyridin-2-yl)-piperazin-1-yl]-(5-phenyl-thiophen-2-yl)-methanone]",70 to 89%,70 to 89%,> 90%
"O=C(c1c[nH]c2ccc(F)cc12)N1CCN(c2ccc(O)cn2)CC1 [I.155, (5-Fluoro-1H-indol-3-yl)-[4-(5-hydroxy-pyridin-2-yl)-piperazin-1-yl]-methanone]",> 90%,> 90%,> 90%
"O=C(CCc1ccccn1)N1CCN(c2ccc(O)cn2)CC1 [I.129, 1-[4-(5-Hydroxy-pyridin-2-yl)-piperazin-1-yl]-3-pyridin-2-yl-propan-1-one]",70 to 89%,70 to 89%,> 90%
"COc1ccc(C(CC(=O)N2CCN(c3ccc(O)cn3)CC2)c2ccc(OC)cc2)cc1 [I.93, 1-[4-(5-Hydroxy-2-pyridyl)-piperazin-1-yl]-3,3-bis(4-methoxy-phenyl)-propan-1-one]",70 to 89%,70 to 89%,> 90%
"O=C(CC12CC3CC(CC(C3)C1)C2)N1CCN(c2ccc(O)cn2)CC1 [I.55, 2-(1-adamantyl)-1-[4-(5-hydroxy-2-pyridyl)piperazin-1-yl]ethanone]",70 to 89%,> 90%,> 90%
"N#Cc1ccc(CCC(=O)N2CCN(c3ccc(O)cn3)CC2)cc1 [I.138, 3-(4-Cyano-phenyl)-1-[4-(5-hydroxy-pyridin-2-yl)-piperazin-1-yl]-propan-1-one]",> 90%,> 90%,> 90%
"O=C(CCc1cc2ccccc2s1)N1CCN(c2ccc(O)cn2)CC1 [I.122, 3-Benzo[b]-thiophen-2-yl-1-[4-(5-hydroxy-pyridin-2-yl)-piperazin-1-yl]-propan-1-one]",> 90%,> 90%,> 90%
